Patent publication US20230121611A1, “Monohydrate Salt of Denatonium Acetate” (priority 2021, published 2023)
“Also recorded” adds a separate entry of the source.

Assays:
[1] = Form stability of further XRPD patterns on storage or standing (reanalysis by XRPD); assay type: physicochemical; details: for XRPD form after standing on disc for 4 hours / XRPD form after standing overnight on disc: ambient lab conditions; for XRPD form after standing on disc for 4 hours: 4 hours on XRPD disc; for XRPD form after standing overnight on disc: room temperature
Excerpt: (§1) It was then removed from the instrument and a portion immediately analyzed by XRPD.
The frozen sample was lyophilized on the freeze dryer until all the solvent was removed. […] This was designated as Pattern 2.
A summary of the characterization data for the samples of Pattern 5 can be found in Table 9.

[2] = assay type: physicochemical
Procedure: Next, methyl isobutyl ketone was added and then water. In some embodiments, a lower alkyl isobutyl ketone is used in place of methyl isobutyl ketone. In some embodiments, the lower alkyl is a C1-3 alkyl. In some embodiments, the lower alkyl is methyl or ethyl. The temperature was lowered to <10° C. The remaining solid was isolated and washed with methyl isobutyl ketone to produce the final DAM (denatonium acetate monohydrate).

[3] = Gravimetric Vapor Sorption (GVS) experiments; assay type: physicochemical
Procedure: Several Gravimetric Vapor Sorption (GVS) experiments were carried out to investigate the behavior of DAM over a range of different relative humidity levels. […] This experiment used a similar method to GVS 1 without the steps involving 90% RH where the large mass changes were observed and equilibrium was not reached. […] Most of the mass change (1.3-1.4% increase) occurred between 0-10% RH.

[4] = Storage under stress conditions (temperature / relative humidity); assay type: physicochemical; details: for UPLC purity after storage: input purity 99.5%
Excerpt: It also lost mass when taken to relative humidity levels of less than 10%.
It also loses mass when taken to relative humidity levels of less than 10%.
as §1

**Q.** Which “XRPD form after standing on disc for 4 hours” value [1] does the source give for `CC(=O)[O-].CC[N+](CC)(CC(=O)Nc1c(C)cccc1C)Cc1ccccc1.O` [DAM Pattern 5] here?
**A.** Its value is “Conversion to Pattern 1 by XRPD”.

**Q.** And the “XRPD form after standing on disc for 4 hours” value ([1]; listed as Pattern 5)?
**A.** The value was “readily convert to Pattern 1; also recorded: conversion to Pattern 1; also recorded: converted to Pattern 1; also recorded: reverted to Pattern 1”.

**Q.** What about the “stability of the pattern” value ([1]; ambient laboratory conditions) of the same compound?
**A.** The value was “metastable”.

**Q.** And the “XRPD form after storage in closed vial” value ([1]; 6 weeks, listed as Pattern 5)?
**A.** The value was “converted to Pattern 1”.

**Q.** And the “XRPD form after standing overnight on disc” value [1]?
**A.** The value was “Conversion to Pattern 1 by XRPD”.

**Q.** And the “XRPD form after standing overnight on disc” value ([1]; listed as Pattern 5)?
**A.** Its value is “convert to Pattern 1; also recorded: reverted to Pattern 1”.

**Q.** What about the “XRPD form under ambient laboratory conditions” value ([1]; within a few hours) of the same compound?
**A.** The value was “converts to Pattern 1”.

**Q.** Which “XRPD form after storage in closed vial” value ([1]; 7 weeks) does the source give for `CC(=O)[O-].CC[N+](CC)(CC(=O)Nc1c(C)cccc1C)Cc1ccccc1.O` [DAM Pattern 2] here?
**A.** The value was “Conversion to Pattern 1 by XRPD”.

**Q.** And the “XRPD form after storage in closed vial” value ([1]; 7 weeks, listed as Pattern 2)?
**A.** Its value is “converted to Pattern 1; also recorded: consistent with Pattern 1”.

**Q.** For `CC(=O)[O-].CC[N+](CC)(CC(=O)Nc1c(C)cccc1C)Cc1ccccc1` [DAA, Denatonium Acetate, anhydrous], which degradation products [2] is on record?
**A.** The degradation products was “either (A) lidocaine and benzyl acetate or it degraded to (B) 2-(diethylamino)-3-phenyl-N-(2,6-dimethylphenylpropionamide”.

**Q.** Which results are given for `CC(=O)[O-].CC[N+](CC)(CC(=O)Nc1c(C)cccc1C)Cc1ccccc1` [DAM, denatonium acetate monohydrate]?
**A.** mass change ([3]; GVS 2, between 0-10% RH): 1.4%; mass change ([3]; GVS 3, between 0-10% RH): 1.3-1.4%; sample appearance after GVS ([3]; after GVS 1 (40-90-0-90-0-40)): sorption cycle. Sample had formed a solid mass with powdery; sample appearance after GVS ([3]; after GVS 2 (40-80-0-80-0-40), acetate monohydrate): remained as a free-flowing powder; also recorded: Sample remained free flowing solid; sample appearance after GVS ([3]; after GVS 3 (40-0-80-0-80-0-40), acetate monohydrate): remained as a free-flowing powder; also recorded: Sample remained free flowing solid; XRPD post GVS ([3]; post GVS 1, 2, 3): Shows no change in form by XRPD post GVS 1, 2, 3; XRPD post GVS ([3]; post GVS 2): consistent with Pattern 1; XRPD post GVS ([3]; post GVS 3): consistent with Pattern 1; hygroscopicity ([3]; relative humidity levels above 80%, acetate monohydrate): ED21356-001-001-00 is very hygroscopic especially at levels; mass behaviour at low humidity ([3]; relative humidity levels of less than 10%, acetate monohydrate): lost mass; also recorded: loses mass; XRPD form after storage at 0% RH ([4]; 0% RH, open vial in GVS instrument, 2 days, acetate monohydrate): converted to Pattern 5; also recorded: consistent with Pattern 5; also recorded: change in form to Pattern 5; observation after storage ([4]; 25° C., 96% RH, 5 days, acetate monohydrate): deliquesce; also recorded: Sample had deliquesced; XRPD after storage ([4]; 25° C., 96% RH, 7 days): Amorphous; observation after storage ([4]; 25° C., 96% RH, 7 days): deliquesced; UPLC purity after storage ([4]; 25° C., 96% RH, 7 days): UPLC purity 98.9%; XRPD after storage ([4]; 40° C., 75% RH, 7 days): Shows no change in form by XRPD after 7 days; UPLC purity after storage ([4]; 40° C., 75% RH, 7 days): UPLC purity 99.4%; observation after storage ([4]; 40° C., 75% RH, after 5 and 7 days): Remained a solid after 5 and 7 days.

**Q.** Which results are given for `CC(=O)[O-].CC[N+](CC)(CC(=O)Nc1c(C)cccc1C)Cc1ccccc1.O` [DAM Pattern 4]?
**A.** XRPD form after storage in closed vial ([1]; 6 weeks): Conversion to Pattern 1 by XRPD; XRPD form after storage in closed vial ([1]; 6 weeks, listed as Pattern 4): conversion to Pattern 1
